This passage reports MIC results from ChEMBL document CHEMBL1811847, “Initial efforts toward the optimization of arylomycins for antibiotic activity” (2011).

What all share (format): functional
The test system of one experiment is Pseudomonas aeruginosa. Put plainly: Antibacterial activity against wild-type Pseudomonas aeruginosa PAO1 after 24 hrs by CLSI broth microdilution method. The note with it: PAO1, 24 h.
Experiment [1] deals with Escherichia coli. As to the kind of experiment: Antibacterial activity against Escherichia coli MG1655 after 24 hrs by CLSI broth microdilution method. The conditions noted are these: MG1655, 24 h. (In general: In broth dilution the organism is exposed to a series of concentrations in liquid medium.)
Experiment [2] deals with Staphylococcus aureus. Put plainly: Antibacterial activity against wild-type Staphylococcus aureus NCTC 8325 after 24 hrs by CLSI broth microdilution method. The conditions noted are these: NCTC 8325, 24 h.
Experiment [3] deals with Staphylococcus epidermidis. As to the kind of experiment: Antibacterial activity against wild-type Staphylococcus epidermidis RP62A after 24 hrs by CLSI broth microdilution method.
Experiment [4] relates to Staphylococcus epidermidis. Put plainly: Antibacterial activity against Staphylococcus epidermidis RP62A harboring spsB S29P mutant after 24 hrs by CLSI broth microdilution method.
Experiment [5] relates to Escherichia coli. Put plainly: Antibacterial activity against Escherichia coli MG1655 harboring lepB P84L mutant after 24 hrs by CLSI broth microdilution method. The conditions noted are these: MG1655, 24 h.
In experiment [6] the test system is Staphylococcus aureus. Put plainly: Antibacterial activity against Staphylococcus aureus NCTC 8325 harboring lepB P29S mutant after 24 hrs by CLSI broth microdilution method. The note with it: NCTC 8325, 24 h.

Converted amounts (≈) assume the structure as drawn.

Regarding `CCCCCCCC(=O)N(C)[C@H](CO)C(=O)N[C@H](C)C(=O)NCC(=O)N(C)[C@@H]1C(=O)N[C@@H](C)C(=O)N[C@H](C(=O)O)Cc2ccc(O)c(c2)-c2cc1ccc2O`, the MIC against Pseudomonas aeruginosa, against Escherichia coli [1] and against Staphylococcus aureus [2] was over 64 µg/mL throughout.
Take `CCCCCCCCc1ccc(-c2ccc(C(=O)N(C)[C@H](CO)C(=O)N[C@H](C)C(=O)NCC(=O)N(C)[C@@H]3C(=O)N[C@@H](C)C(=O)N[C@H](C(=O)O)Cc4ccc(O)c(c4)-c4cc3ccc4O)cc2)cc1`: the MIC against Pseudomonas aeruginosa was over 64 µg/mL; in experiment [3], 1 µg/mL (≈ 1.07 µM); in the experiment with Escherichia coli [1], over 64 µg/mL; in experiment [4], 16 µg/mL (≈ 17.1 µM); in the experiment with Staphylococcus aureus [2], 16 µg/mL (≈ 17.1 µM); in the experiment with Escherichia coli [5] it was 1 µg/mL (≈ 1.07 µM). Moreover, inhibition of growth against Staphylococcus aureus [6] (MIC) required 8 µg/mL (≈ 8.56 µM).
Take `CCCCCCCCCCCC(=O)N(C)[C@H](CO)C(=O)N[C@H](C)C(=O)NCC(=O)N(C)[C@@H]1C(=O)N[C@@H](C)C(=O)N[C@H](C(=O)O)Cc2ccc(O)c(c2)-c2cc1ccc2O`: the minimum inhibitory concentration (MIC) (in the experiment with Pseudomonas aeruginosa; with Escherichia coli [1]; in experiment [4]; in the experiment on Staphylococcus aureus [2]) was over 64 µg/mL each time.
In the case of `CCCCCCCCCC(=O)N(C)[C@H](CO)C(=O)N[C@H](C)C(=O)NCC(=O)N(C)[C@@H]1C(=O)N[C@@H](C)C(=O)N[C@H](C(=O)O)Cc2ccc(O)c(c2)-c2cc1ccc2O`, the minimal inhibitory concentration (MIC) against Pseudomonas aeruginosa, against Escherichia coli [1] and in the experiment on Staphylococcus aureus [2] was over 64 µg/mL each time.
With `CCCCCCCCCCCCCCCCCC(=O)N(C)[C@H](CO)C(=O)N[C@H](C)C(=O)NCC(=O)N(C)[C@@H]1C(=O)N[C@@H](C)C(=O)N[C@H](C(=O)O)Cc2ccc(O)c(c2)-c2cc1ccc2O`, the MIC against Pseudomonas aeruginosa, against Escherichia coli [1] and in the experiment with Staphylococcus aureus [2] was over 64 µg/mL each time.
Take `C[C@@H]1NC(=O)[C@@H](N(C)C(=O)CNC(=O)[C@@H](C)NC(=O)[C@@H](CO)N(C)C(=O)Cc2ccc3ccccc3c2)c2ccc(O)c(c2)-c2cc(ccc2O)C[C@@H](C(=O)O)NC1=O`: the minimum inhibitory concentration (MIC) (in the experiment with Pseudomonas aeruginosa; in experiment [3]; in the experiment with Escherichia coli [1]; in the experiment with Staphylococcus aureus [2]) was over 64 µg/mL throughout.
Consider `C[C@@H]1NC(=O)[C@@H](N(C)C(=O)CNC(=O)[C@@H](C)NC(=O)[C@@H](CO)N(C)C(=O)Cc2ccc(-c3ccccc3)cc2)c2ccc(O)c(c2)-c2cc(ccc2O)C[C@@H](C(=O)O)NC1=O`, for which the minimum inhibitory concentration (MIC) in the experiment with Pseudomonas aeruginosa was over 64 µg/mL; in experiment [3], 32 µg/mL (≈ 38.2 µM); with Escherichia coli [1], over 64 µg/mL; in experiment [4], over 64 µg/mL; with Staphylococcus aureus [2], over 64 µg/mL.
As for `C[C@@H]1NC(=O)[C@@H](N(C)C(=O)CNC(=O)[C@@H](C)NC(=O)[C@@H](CO)N(C)C(=O)c2ccc(-c3ccccc3)cc2)c2ccc(O)c(c2)-c2cc(ccc2O)C[C@@H](C(=O)O)NC1=O`, the minimal inhibitory concentration (MIC) against Pseudomonas aeruginosa was over 64 µg/mL; in experiment [3], 64 µg/mL (≈ 77.8 µM); with Escherichia coli [1], over 64 µg/mL; in experiment [4], over 64 µg/mL; against Staphylococcus aureus [2], over 64 µg/mL.
`CCc1ccc(-c2ccc(C(=O)N(C)[C@H](CO)C(=O)N[C@H](C)C(=O)NCC(=O)N(C)[C@@H]3C(=O)N[C@@H](C)C(=O)N[C@H](C(=O)O)Cc4ccc(O)c(c4)-c4cc3ccc4O)cc2)cc1`: the minimal inhibitory concentration (MIC) against Pseudomonas aeruginosa was over 64 µg/mL; in experiment [3], 8 µg/mL (≈ 9.4 µM); with Escherichia coli [1], over 64 µg/mL; in experiment [4], over 64 µg/mL; against Staphylococcus aureus [2] it was over 64 µg/mL; against Escherichia coli [5], 16 µg/mL (≈ 18.8 µM). This compound gave an MIC in the experiment on Staphylococcus aureus [6] of 64 µg/mL (≈ 75.2 µM).
Consider `CCCCc1ccc(-c2ccc(C(=O)N(C)[C@H](CO)C(=O)N[C@H](C)C(=O)NCC(=O)N(C)[C@@H]3C(=O)N[C@@H](C)C(=O)N[C@H](C(=O)O)Cc4ccc(O)c(c4)-c4cc3ccc4O)cc2)cc1`, for which the MIC in the experiment with Pseudomonas aeruginosa was over 64 µg/mL; in experiment [3] it was 1 µg/mL (≈ 1.14 µM); with Escherichia coli [1], over 64 µg/mL; in experiment [4], over 64 µg/mL; against Staphylococcus aureus [2], over 64 µg/mL; against Escherichia coli [5], 4 µg/mL (≈ 4.55 µM). For the same compound, the MIC in the experiment on Staphylococcus aureus [6] was determined as 16 µg/mL (≈ 18.2 µM).
On to `CCCCCCc1ccc(-c2ccc(C(=O)N(C)[C@H](CO)C(=O)N[C@H](C)C(=O)NCC(=O)N(C)[C@@H]3C(=O)N[C@@H](C)C(=O)N[C@H](C(=O)O)Cc4ccc(O)c(c4)-c4cc3ccc4O)cc2)cc1`, for which the MIC with Pseudomonas aeruginosa is over 64 µg/mL; in experiment [3], 0.5 µg/mL (≈ 0.551 µM); in the experiment with Escherichia coli [1] it was over 64 µg/mL; in experiment [4], 32 µg/mL (≈ 35.3 µM); in the experiment with Staphylococcus aureus [2], 64 µg/mL (≈ 70.6 µM); in the experiment with Escherichia coli [5] it was 1 µg/mL (≈ 1.1 µM). Further, the MIC in the experiment on Staphylococcus aureus [6] was 8 µg/mL (≈ 8.82 µM).
As for `CCCCCCc1ccc(C(=O)N(C)[C@H](CO)C(=O)N[C@H](C)C(=O)NCC(=O)N(C)[C@@H]2C(=O)N[C@@H](C)C(=O)N[C@H](C(=O)O)Cc3ccc(O)c(c3)-c3cc2ccc3O)cc1`, the minimal inhibitory concentration (MIC) was over 64 µg/mL in the experiment on Pseudomonas aeruginosa; 8 µg/mL (≈ 9.63 µM) in experiment [3]; over 64 µg/mL against Escherichia coli [1]; over 64 µg/mL in experiment [4]; over 64 µg/mL in the experiment with Staphylococcus aureus [2]; 32 µg/mL (≈ 38.5 µM) in the experiment on Escherichia coli [5]. In the experiment on Staphylococcus aureus [6], this compound registered a minimum inhibitory concentration (MIC) of 64 µg/mL (≈ 77 µM).

By MIC is commonly meant the lowest concentration found to suppress growth. A lower MIC goes with inhibition by little substance.
